This passage reports IC50 results from patent publication US20250304549A1, “HYDROXYAMIDE DERIVATIVE AND USE THEREOF” (SICHUAN HUIYU PHARMACEUTICAL CO., LTD., priority 2022, published 2025).

Counter-ions that a name gives are not always drawn.

One experiment deals with HDAC8 (Homo sapiens (Human), UniProt Q9BY41). The experiment can be described thus: In vitro enzyme inhibition assay - HDAC (HDAC-Glo I/II), HDAC8. The class given is biochemical. Particulars: read-out: HDAC IC50 (nM) HDAC 8. A digest of the protocol:
(§1)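 Inhibition was measured with the HDAC-Glo I/II luminescent assay, testing compound as an 8-point, 5-fold dilution series from a 1 mM DMSO stock. Luminescence (RLU) was normalized to no-inhibitor and no-enzyme controls, and IC50 was derived by four-parameter variable-slope fitting.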

The target in another experiment is HDAC1 (Homo sapiens (Human), UniProt Q13547). The experiment can be described thus: In vitro enzyme inhibition assay - HDAC (HDAC-Glo I/II), HDAC1. Particulars: read-out: HDAC IC50 (nM) HDAC 1. The format is biochemical. On the procedure: 2. In Vitro Enzyme Inhibition Assay—HDAC
Chain of HDAC1 (Q13547 whole entry, canonical isoform): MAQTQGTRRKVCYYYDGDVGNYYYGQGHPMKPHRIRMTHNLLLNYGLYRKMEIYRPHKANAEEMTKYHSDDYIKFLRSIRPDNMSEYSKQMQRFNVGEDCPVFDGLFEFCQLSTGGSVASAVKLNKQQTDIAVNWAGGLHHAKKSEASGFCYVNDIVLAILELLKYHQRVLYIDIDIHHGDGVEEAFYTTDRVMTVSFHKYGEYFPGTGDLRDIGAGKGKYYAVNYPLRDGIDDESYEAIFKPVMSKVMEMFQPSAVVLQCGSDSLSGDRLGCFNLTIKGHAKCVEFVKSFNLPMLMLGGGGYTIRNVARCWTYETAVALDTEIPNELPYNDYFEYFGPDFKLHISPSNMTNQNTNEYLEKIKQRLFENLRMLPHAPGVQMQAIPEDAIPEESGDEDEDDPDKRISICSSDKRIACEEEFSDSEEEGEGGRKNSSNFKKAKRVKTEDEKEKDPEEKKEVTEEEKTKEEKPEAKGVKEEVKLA
The effect of the compound on the enzymatic activity of pan-HDAC and two isoforms (HDAC1 and HDAC8) was examined using the HDAC-Glo I/II Assay and Screening System assay to assess the level of inhibition of HDAC protease activity and selectivity in each isoform. The proteins and detection reagents were from the HDAC-Glo™ I/II Assay and Screening System (Promega). A 1 mM stock solution of the compound was prepared in DMSO and diluted in a 5-fold gradient to create a series of 8 concentrations, and a specific volume of the highest concentration was diluted 25 times with HDAC Buffer to obtain 4× working solution of the compound. […] The 384-well plate was then read on a multifunctional microplate reader, with the Luminescence channel selected to record Luminescence values (RLU). The inhibition rate was calculated using the following formula: […]
Note: ‘Negative’ refers to the group without the inhibitor; ‘Blank’ refers to the group without the enzyme.
The IC50 value was calculated by fitting the inhibition rate by GraphPad Prism software, employing log (inhibitor) vs. response-Variable Slope (four parameters) model.

Another experiment deals with pan-HDAC. The experiment in a line: In vitro enzyme inhibition assay - HDAC (HDAC-Glo I/II), pan-HDAC. The class given is biochemical. In outline:
as §1

The test system of a further experiment is NCI-H1417 cells. The experiment in a line: In vitro cell inhibition assay - H1417 cell proliferation (CellTiter-Glo). The format is cell-based. In outline: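 Cells exposed to 8 compound concentrations (5-fold dilutions) in BEGM with 10% FBS for 7 days at 37° C., 5% CO2. Viable cells measured by CellTiter-Glo luminescence; inhibition versus no-inhibitor and no-cell controls, IC50 fitted.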
On the technique in general: In ATP-based viability assays light output follows the ATP content of the culture.

For the next experiment, the target named is LSD1 (Homo sapiens (Human), UniProt O60341). The experiment in a line: In vitro enzyme inhibition assay - LSD1 (HTRF). The class given is biochemical. (In TR-FRET formats the signal depends on donor and acceptor labels being close together.)
A further experiment deals with DU145 cells. The experiment in a line: In vitro cell inhibition assay - DU145 cell proliferation (CellTiter-Glo). The class given is cell-based. A digest of the protocol:
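Viability read-out was CellTiter-Glo luminescence after a 6-day, 37° C exposure of DU145 cells (1×10^3/well, 10% FBS RPMI-640) to 8 compound concentrations in 5-fold steps.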

The test system of another experiment is NCI-H526 cells. The experiment can be described thus: In vitro cell inhibition assay - NCI-H526 cell proliferation (CellTiter-Glo). The format is cell-based. To be noted: H526 small cell lung cancer cell proliferation, 5 days. In outline:
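NCI-H526 cells plated at 1×10^3 per well overnight, then treated with 8 concentrations (5-fold dilutions) in RPMI-640 with 10% FBS for 5 days at 37° C., 5% CO2. Viable cells quantified by CellTiter-Glo luminescence; IC50 fitted from inhibition rates relative to no-inhibitor and no-cell controls.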

The next experiment relates to NCI-H69 cells. The experiment in a line: In vitro cell inhibition assay - NCI-H69 cell proliferation (CellTiter-Glo). The class given is cell-based. A digest of the protocol:
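Proliferation was assessed after a 7-day compound treatment of cells seeded at 1×10^3 per well. IC50 values came from fitting inhibition rates derived from CellTiter-Glo luminescence.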

Setting [1] is: Homo sapiens, NCI-H1417, H1417 small cell lung cancer cell proliferation.
The mark [2] stands for this setting: Homo sapiens, DU-145, Du145 prostate cancer cell proliferation.
[3] abbreviates: Homo sapiens, NCI-H69, H69 small cell lung cancer cell proliferation.
Setting [4] is: Du145 prostate cancer cell proliferation.
[5] abbreviates: H69 small cell lung cancer cell proliferation.
[6] abbreviates: H1417 small cell lung cancer cell proliferation.

Chain of HDAC8 (Q9BY41 whole entry): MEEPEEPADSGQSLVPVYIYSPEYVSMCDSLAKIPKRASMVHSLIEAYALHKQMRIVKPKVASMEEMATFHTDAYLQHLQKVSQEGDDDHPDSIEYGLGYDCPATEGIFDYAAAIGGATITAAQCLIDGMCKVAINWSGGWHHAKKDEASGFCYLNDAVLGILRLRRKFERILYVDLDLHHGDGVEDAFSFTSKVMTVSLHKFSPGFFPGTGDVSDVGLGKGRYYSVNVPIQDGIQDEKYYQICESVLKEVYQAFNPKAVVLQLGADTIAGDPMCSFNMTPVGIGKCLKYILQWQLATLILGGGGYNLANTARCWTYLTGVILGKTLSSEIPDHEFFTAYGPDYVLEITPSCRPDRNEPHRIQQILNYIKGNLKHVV

`COc1ccc(-c2c(OCCCCCCC(=O)NO)cc(N3CCC(N)CC3)nc2-c2ccc(C#N)c(F)c2)cc1O` [Example 1, 7-((6-(4-aminopiperidin-1-yl)-2-(4-cyano-3-fluorophenyl)-3-(3-hydroxy-4-methoxyphenyl)pyridin-4-yl)oxy)-N-hydroxyheptanamide hydrochloride]: the IC50 came to 215 nM on HDAC8, 68.1 nM at HDAC1, 17.5 nM against pan-HDAC and 216 nM with NCI-H1417 cells (setting [1]).

For `COc1ccc(-c2c(-c3ccc(C#N)c(F)c3)nc(N3CCC(N)CC3)n3ccnc23)cc1OCCCCCCC(=O)NO` [Example 20, 7-(5-(5-(4-aminopiperidin-1-yl)-7-(4-cyano-3-fluorophenyl)imidazo[1,2-c]pyrimidin-8-yl)-2-methoxyphenoxy)-N-hydroxyheptanamide hydrochloride], the IC50 worked out at 446 nM at HDAC8; 311 nM on HDAC1; 16.9 nM at LSD1; 96.5 nM on pan-HDAC; 845 nM in the experiment on NCI-H1417 cells (setting [1]).

As for `N#Cc1ccc(-c2nc(N3CCC(N)CC3)n3ccnc3c2-c2ccc(OCCCCCCC(=O)NO)c(O)c2)cc1F` [Example 21, 7-(4-(5-(4-Aminopiperidin-1-yl)-7-(4-cyano-3-fluorophenyl)imidazo[1,2-c]pyrimidin-8-yl)-2-hydroxyphenoxy)-N-hydroxyheptanamide hydrochloride], the IC50 at HDAC8 is 275 nM; at HDAC1 it was 400 nM; against LSD1 it was 0.05 nM; on pan-HDAC, 119 nM; in the experiment with NCI-H1417 cells (setting [1]), 65 nM.

Consider `COc1ccc(-c2cnc(N3CCC(NCc4ccc(/C=C/C(=O)NO)cc4)CC3)c(C#N)c2-c2ccc(C#N)c(F)c2)cc1O` [Example 37, (E)-3-(4-(((1-(3-cyano-4-(4-cyano-3-fluorophenyl)-5-(3-hydroxy-4-methoxyphenyl)pyridin-2-yl)piperidin-4-yl)amino)methyl)phenyl)-N-hydroxyacrylamide hydrochloride], for which the IC50 was determined as 26 nM with DU145 cells (setting [2]); 10.3 nM with NCI-H526 cells (Homo sapiens, NCI-H526, 120 h); 1.95 nM against LSD1; 8.52 nM in the experiment with NCI-H69 cells (setting [3]); 6.56 nM in the experiment with NCI-H1417 cells (setting [1]).

On to `COc1ccc(-c2cnc(N3CCC(NCc4ccc(/C=C/C(=O)NO)cc4)CC3)cc2-c2ccc(C#N)c(F)c2)cc1O` [Example 80, (E)-3-(4-(((1-(4-(4-cyano-3-fluorophenyl)-5-(3-hydroxy-4-methoxyphenyl)pyridin-2-yl)piperidin-4-yl)amino)methyl)phenyl)-N-hydroxyacrylamide formate], for which the IC50 in the experiment on DU145 cells (setting [2]) was 56.5 nM; in the experiment with NCI-H526 cells (Homo sapiens, NCI-H526, 120 h) it was 29.3 nM; on HDAC8, 165 nM; against pan-HDAC it was 14.9 nM; in the experiment on NCI-H69 cells (setting [3]), 27.8 nM; in the experiment on NCI-H1417 cells (setting [1]), 14 nM.

Consider `COc1ccc(-c2ccc(N3CCC(NCc4ccc(/C=C/C(=O)NO)cc4)CC3)c(C#N)c2-c2ccc(C#N)c(F)c2)cc1O` [Example 84, (E)-3-(4-(((1-(3′,4″-dicyano-3″-fluoro-3-hydroxy-4-methoxy-[1,1′:2′,1″-terphenyl]-4′-yl)piperidin-4-yl)amino)methyl)phenyl)-N-hydroxyacrylamide], for which the IC50 in the experiment with DU145 cells (setting [2]) was determined as 116 nM; with NCI-H526 cells (Homo sapiens, NCI-H526, 120 h), 68.4 nM; at HDAC8, 73.6 nM; against LSD1, 0.62 nM; on pan-HDAC, 5.45 nM; with NCI-H69 cells (setting [3]) it was 32.9 nM. Moreover, 4 nM corresponded to half-maximal inhibition in the experiment with NCI-H1417 cells (setting [1]) (IC50).

`COc1cc(-c2cnc(N3CCC(NCc4cnc(/C=C/C(=O)NO)nc4)CC3)c(C#N)c2-c2ccc(C#N)c(F)c2)ccc1O` [Example 96, (E)-3-(5-((1-(3-Cyano-4-(4-cyano-3-fluorophenyl)-5-(4-hydroxy-3-methoxyphenyl)pyridin-2-yl)piperidin-4-yl)amino)methyl) pyrimidin-2-yl)-N-hydroxyacrylamide formate]: the IC50 came out at 149 nM in the experiment with DU145 cells (setting [2]); 108 nM in the experiment on NCI-H526 cells (Homo sapiens, NCI-H526, 120 h); 16.3 nM at HDAC8; 39.9 nM at LSD1; 16.4 nM on pan-HDAC; 101 nM in the experiment with NCI-H69 cells (setting [3]). In the experiment on NCI-H1417 cells (setting [1]), this compound yielded an IC50 of 74.2 nM.

Turning to `COc1ccc(-c2cnc(N3CCC(NCc4ccc(/C=C/C(=O)NO)nc4)CC3)c(C#N)c2-c2ccc(C#N)c(F)c2)cc1O` [Example 117, (E)-3-(5-((1-(3-Cyano-4-(4-cyano-3-fluorophenyl)-5-(3-hydroxy-4-methoxyphenyl)pyridin-2-yl)piperidin-4-yl)amino)methyl) pyridin-2-yl)-N-hydroxyacrylamide formate], the IC50 with DU145 cells (setting [4]) turned out to be 10.4 nM; in the experiment with NCI-H526 cells, 4.54 nM; on HDAC8 it was 13 nM; at LSD1 it was 0.36 nM; against pan-HDAC, 0.8 nM; in the experiment with NCI-H69 cells (setting [5]), 4.21 nM. This compound also returned an IC50 in the experiment on NCI-H1417 cells (setting [6]) of 1.7 nM.

As for `COc1ncc(-c2cnc(N3CCC(NCc4ccc(/C=C/C(=O)NO)cc4)CC3)c(C#N)c2-c2ccc(C#N)c(F)c2)cc1O` [Example 123, (E)-3-(4-((1-(5-Cyano-4-(4-cyano-3-fluorophenyl)-5′-hydroxy-6′-methoxy-[3,3′-bipyridin]-6-yl)piperidin-4-yl)amino)methyl) phenyl)-N-hydroxyacrylamide trifluoroacetate], the IC50 with DU145 cells (setting [4]) is 112 nM; in the experiment on NCI-H526 cells, 71.3 nM; against LSD1, 0.74 nM; with NCI-H69 cells (setting [5]) it was 76.3 nM; in the experiment with NCI-H1417 cells (setting [6]), 4.2 nM.

As to `COc1ccc(-c2cnc(N3CCC(NCc4ccc5cc(C(=O)NO)sc5c4)CC3)c(C#N)c2-c2ccc(C#N)c(F)c2)cc1O` [Example 126, 6-(1-(3-Cyano-4-(4-cyano-3-fluorophenyl)-5-(3-hydroxy-4-methoxyphenyl)pyridin-2-yl)piperidin-4-yl)amino)methyl)-N-hydroxybenzothio phene-2-carboxamide formate], the IC50 in the experiment on DU145 cells (setting [2]) came to 715 nM; in the experiment with NCI-H526 cells (Homo sapiens, NCI-H526, 120 h), 280 nM; on HDAC8 it was 132 nM; against LSD1, 1.11 nM; against pan-HDAC it was 197 nM; in the experiment with NCI-H69 cells (setting [3]), 284 nM. The compound further came in with an IC50 with NCI-H1417 cells (setting [1]) of 1.76 nM.

For `N#Cc1ccc(-c2c(-c3ccc4cn[nH]c4c3)cnc(N3CCC(NCc4ccc(/C=C/C(=O)NO)cc4)CC3)c2C#N)cc1F` [Example 142, (E)-3-(4-(((1-(3-Cyano-4-(4-cyano-3-fluorophenyl)-5-(1H-indazol-6-yl)pyridin-2-yl)piperidin-4-yl)amino)methyl)phenyl)-N-hydroxyacrylamide formate], the IC50 worked out at 4.24 nM in the experiment with DU145 cells (setting [2]); 4.61 nM in the experiment on NCI-H526 cells (Homo sapiens, NCI-H526, 120 h); 1.8 nM on LSD1; 4.73 nM with NCI-H69 cells (setting [3]); 7.59 nM in the experiment with NCI-H1417 cells (setting [1]).

As to `Cc1ccc(-c2cnc(N3CCC(NCc4cnc(/C=C/C(=O)NO)nc4)CC3)c(C#N)c2-c2ccc(C#N)c(F)c2)cc1O` [Example 148, (E)-3-(5-(((1-(3-Cyano-4-(4-cyano-3-fluorophenyl)-5-(3-hydroxy-4-methylphenyl)pyridin-2-yl)piperidin-4-yl)amino)methyl)pyrimidin-2-yl)-N-hydroxyacrylamide formate], the IC50 in the experiment on DU145 cells (setting [2]) was 21.8 nM; in the experiment on NCI-H526 cells (Homo sapiens, NCI-H526, 120 h) it was 6.22 nM; in the experiment with NCI-H69 cells (setting [3]) it was 13.1 nM; with NCI-H1417 cells (setting [1]), 2.64 nM.

For `COc1ccc(-c2cnc(N3CCCC(NCc4ccc(/C=C/C(=O)NO)cc4)CC3)c(C#N)c2-c2ccc(C#N)c(F)c2)cc1O` (centres unmarked) [Example 149, (E)-3-(4-(((1-(3-Cyano-4-(4-cyano-3-fluorophenyl)-5-(3-hydroxy-4-methoxyphenyl)pyridin-2-yl)azepan-4-yl)amino)methyl)phenyl)-N-hydroxyacrylamide formate], the IC50 was found to be 33.9 nM in the experiment with DU145 cells (setting [2]); 14.5 nM in the experiment on NCI-H526 cells (Homo sapiens, NCI-H526, 120 h); 23.6 nM in the experiment on NCI-H69 cells (setting [3]); 2.08 nM with NCI-H1417 cells (setting [1]).

By IC50 is commonly meant the concentration at which inhibition is half-maximal.
